Laboratory results as given in patent publication US20060106038A1, “Methods for treating and/or preventing aberrant proliferation of hematopoietic cells” (ICOS CORPORATION, priority 2004, published 2006).
Where two headings read alike, the source gives them in different places.

What was measured:
[1] = tested on: myeloid and erythroid colony formation; assay: Methylcellulose clonogenic assay; type: cell-based; details: PI3Kδ selective inhibitor at 10 μM
AML cells = assay: Cell proliferation assay, [3H]-Thymidine incorporation, AML cells; type: cell-based; details: Homo sapiens, 48 h, PI3Kδ selective inhibitor 10 μM, rapamycin 50 ng/ml
Experimental: Cell proliferation assays were conducted to determine whether PI3K inhibition contributes to AML cell viability. In most PI3K-positive samples tested, the mTOR pathway was activated as assessed by phosphorylation of P70S6K protein on Threonine 389. Thus, proliferation assays were also conducted to determine whether mTOR contributes to AML cell viability. Accordingly, proliferation assays were performed on AML cells with or without the following inhibitor compounds: LY294002, a PI3Kδ selective inhibitor, rapamycin, or a combination of the PI3Kδ selective inhibitor and rapamycin. Cell proliferation was determined by measuring DNA synthesis by [3H]-Thymidine incorporation. Comparative experiments were performed on CD34+ cord blood cells.
For AML cells (obtained as previously described in Example 1), BMMCs were cultured at 3×10^5/ml in alpha medium containing 5% fetal calf serum (FCS) without cytokines for 48 hours, with or without the following inhibitors: LY294002 at 25 μM, PI3Kδ selective inhibitor at 10 μM, rapamycin at 50 ng/ml, or an association of a PI3Kδ selective inhibitor and rapamycin, and incubated in 96-well plates in triplicate. [^3H]-Thymidine was added for a final 6 hour pulse, and the amount of radioactivity incorporated in cells was determined by trichloracetic acid (TCA) precipitation. […] DNA synthesis was measured by [^3H]-Thymidine incorporation after […].

Row | SMILES | inhibition at 10 µM [1] | inhibition at 10 µM (AML cells; PI3K-positive AML samples, read-out: inhibition of proliferation of leukemic cells) | inhibition at 10 µM (AML cells; representative PI3K-negative AML cell sample, read-out: inhibition of proliferation of leukemic cells (mean values))
1 | O=c1cc(N2CCOCC2)oc2c(-c3ccccc3)cccc12 [LY294002] | 95% |  | 
2 | CO[C@H]1C[C@@H]2CC[C@@H](C)[C@@](O)(O2)C(=O)C(=O)N2CCCC[C@H]2C(=O)O[C@H]([C@H](C)C[C@@H]2CC[C@@H](O)[C@H](OC)C2)CC(=O)[C@H](C)/C=C(\C)[C@@H](O)[C@@H](OC)C(=O)[C@H](C)C[C@H](C)/C=C/C=C/C=C/1C [rapamycin] |  | 64% | 29%
